According to US9988626B2, “Neurocalcin delta inhibitors and therapeutic and non-therapeutic uses thereof” (Universität Zu Köln, priority 2013, dated 2018):
Entries after “also recorded” stand apart in the source; their conditions may differ.

What was measured:
zebrafish larvae = assay: Endocytosis inhibitor treatment of zebrafish, motor axon phenotype; format: in vivo
Protocol: The in vivo effect of inhibition of endocytosis on MN outgrowth was investigated by the use of the pharmacological inhibitors Pitstop2 and Dynasore (both Abcam) in the SMA zebrafish model. Motor axons of treated zebrafish larvae were analyzed by fluorescence microscopy. For immunohistochemistry, zebrafish were manually dechorionated and fixed in 4% PFA-PBS at 34 hours post fertilization. To permeabilize the larvae for the following antibody staining, collagenase digest of the whole animal was performed. To visualize the primary motor axons, fish were incubated at 4° C. over night in 500 μl PBS-T/1% DMSO/10% FCS containing znp-1 antibody (1:300, Hybridoma Bank). Fish were stained in PBS-T/1% DMSO/10% FCS containing secondary donkey anti-mouse antibody labelled with Alexafluor 488 (1:200, Invitrogen) after all-day washing in PBS-T/1% FCS/1% BSA (changing solution every hour). After repeated washing in PBS-T and PBS, fish were stored in 80% glycerol/20% PBS in the dark at 4° C. Labelled fish were embedded in low-melting agarose micro slides and analysed using a fluorescence microscope (AxioImager M2, Zeiss). The structure of each of the first ten motor axons posterior to the yolk was analysed, rated as: 1) normal, 2) truncated (truncation ventral from midline), 3) severely truncated (shorter than midline), 4) branched I (branching ventral from midline), 5) branched II (branching at midline), or 6) branched BI (branching dorsal from midline) and statistically evaluated using Excel (Microsoft). Dynasore (dynamin inhibitor) and Pitstop2 (clathrin inhibitor) (both Abcam) were dissolved as stock solution (50 mM) in DMSO and stored at −20° C. Zebrafish were treated with the respective concentrations starting at 16 hpf. To do so, fish were dechorionated and substance was added to the embryo medium. Fish larvae were incubated at 28° C. in an incubator on a rocking platform (20 rpm) until fixed in PBS-PFA at 34 hpf. Subsequently fish were stained with znp-1 antibody, as described above.

NSC34 cells = assay: FITC-dextran endocytosis assay of NSC34 cells treated with Ionomycin; format: cell-based, mouse; conditions: presence vs absence of Ionomycin, n=50
Protocol: To unravel differences in endocytosis performance, cells (fibroblasts and NSC34) were starved and subsequently incubated with FITC-dextran. FITC-uptake after respective incubation times was quantified either by microscopic analysis or by FACS.
One day before the measurement, some 15,000 fibroblasts per well (4-well EZ slides, Millipore) were plated out in 500 μl normal DMEM growth medium (Invitrogen). Cells were starved for 10 minutes in starvation media (DMEM transparent (HEPES), 2% FKS) at 37° C. For endocytosis, cells were treated with FITC dextran solution (5 mg/ml FITC-dextran in starvation medium) for respective time period at 37° C. Subsequently, medium was removed and cells were washed three times with ice-cold PBS on ice and fixed in 4% paraformaldehyde for ten minutes. After subsequent washing (2 times in PBS) cells were stained with Alexafluor 568 phalloidin (Invitrogen, 2 hours at 4° C.). Then, after washing cells were stained with DAPI and mounted with Mowiol (Sigma). Finally, FITC fluorescence was monitored at the fluorescence microscope (Axiolmager M2, Zeiss) and quantified using the Zen software (Zeiss) and evaluated with Excel (Microsoft).

Ncald = assay: Knockdown efficiency of shRNA constructs in NSC34 cells (qRT-PCR of Ncald levels); format: cell-based, mouse; conditions: transient transfection of NSC34 cells, 72 h
Protocol: Before starting the cloning of the targeting construct for the mouse generation, we constructed and tested five individual shRNA elements targeting the Ncald gene. To do so, we transiently transfected five different shRNA-Ncald constructs in murine NSC34 cells and analysed the knockdown efficiency after 72 h. […] For further testing, we cloned selected shRNA sequences into the vector pEx-H1tetO-CAG-tetR carrying all necessary elements of the tetO/R system which allow later induction of the shRNA-expression by administration of doxycycline (Dox) (Kleinhammer et al. 2011). Currently, after we could verify the dox-inducible capability of two shRNA constructs to knockdown Ncald, we are producing stable murine embryonic cell lines (ES cells) to subsequently generate two individual transgenic mouse strains containing inducible Ncald knockdown vectors. These mice will later be crossed on SMA background to investigate the protective ability of Ncald downregulation.
The knockdown efficiency of five individual shRNA sequences was tested by qRT-PCR-based quantification of Ncald levels, 72 h after knockdown using different shRNA sequences. Transient transfection of NSC34 cells. The respective sequences are those of SEQ ID NO: 15-19 as shown above.

Compound: O=C(N/N=C/c1ccc(O)c(O)c1)c1cc2ccccc2cc1O [Dynasore]
- Motor axon truncation, inhibitor alone or with low smn MO (zebrafish larvae; Dynasore alone or in combination with low smn MO): SMA-like axonal truncations

Compound: C[C@H](CCC(=O)O)C[C@H](C)C[C@H](C)C(=O)/C=C(\O)[C@H](C)C[C@H](C)C/C=C/[C@@H](C)[C@@H](O)[C@@H](C)[C@@H](O)C[C@@H]1CC[C@@](C)([C@H]2CC[C@@](C)([C@@H](C)O)O2)O1 [Ionomycin]
- Endocytosis (FITC-dextran) (NSC34 cells): significant increase in endocytosis; also recorded: significantly increased endocytosis

Compound: O=C1NC(=NS(=O)(=O)c2cccc3ccccc23)S/C1=C\c1ccc(Br)cc1 [Pitstop2]
- Motor axon truncation, inhibitor in combination with smn MO (zebrafish larvae; subphenotypical smn MO (2 ng) plus Pitstop2): significant elevation in the number of truncated motor axons
- Motor axon truncation, inhibitor in combination with smn MO (zebrafish larvae; subphenotypical smn MO (2 ng) plus Pitstop2, listed as Pitstop): synergistic effect

Compound: shRNA #4: shRNA knocking down mouse NCALD, one of five of SEQ ID NO: 15-19 (DNA CCGGCGCCAGATGGATACCAATAGACTGGAGTCTATTGGTATCCATCTGGCGTTTTTG)
- Knockdown efficacy of Ncald (Ncald): sufficient knockdown efficacy

Compound: shRNA #5: shRNA knocking down mouse NCALD, one of five of SEQ ID NO: 15-19 (DNA CCGGGCTTCCAAATTTGCAGAGCATCTGGAGATGCTCTGCAAATTTGGAAGCTTTTTG)
- Knockdown efficacy of Ncald (Ncald): sufficient knockdown efficacy
